From US7553966B2, “Glucocorticoid mimetics, methods of making them, pharmaceutical compositions, and uses thereof” (Boehringer Ingelheim Pharmaceuticals, Inc., priority 2002, dated 2009) come the findings set out here.

Experiment [1] concerns the target T1, human glucocorticoid receptor (GR) complex (Homo sapiens, UniProt P04150).
T1 construct: made in house; host or cells: insect expression system (baculovirus lysate)
T1 sequence (P04150 1-777): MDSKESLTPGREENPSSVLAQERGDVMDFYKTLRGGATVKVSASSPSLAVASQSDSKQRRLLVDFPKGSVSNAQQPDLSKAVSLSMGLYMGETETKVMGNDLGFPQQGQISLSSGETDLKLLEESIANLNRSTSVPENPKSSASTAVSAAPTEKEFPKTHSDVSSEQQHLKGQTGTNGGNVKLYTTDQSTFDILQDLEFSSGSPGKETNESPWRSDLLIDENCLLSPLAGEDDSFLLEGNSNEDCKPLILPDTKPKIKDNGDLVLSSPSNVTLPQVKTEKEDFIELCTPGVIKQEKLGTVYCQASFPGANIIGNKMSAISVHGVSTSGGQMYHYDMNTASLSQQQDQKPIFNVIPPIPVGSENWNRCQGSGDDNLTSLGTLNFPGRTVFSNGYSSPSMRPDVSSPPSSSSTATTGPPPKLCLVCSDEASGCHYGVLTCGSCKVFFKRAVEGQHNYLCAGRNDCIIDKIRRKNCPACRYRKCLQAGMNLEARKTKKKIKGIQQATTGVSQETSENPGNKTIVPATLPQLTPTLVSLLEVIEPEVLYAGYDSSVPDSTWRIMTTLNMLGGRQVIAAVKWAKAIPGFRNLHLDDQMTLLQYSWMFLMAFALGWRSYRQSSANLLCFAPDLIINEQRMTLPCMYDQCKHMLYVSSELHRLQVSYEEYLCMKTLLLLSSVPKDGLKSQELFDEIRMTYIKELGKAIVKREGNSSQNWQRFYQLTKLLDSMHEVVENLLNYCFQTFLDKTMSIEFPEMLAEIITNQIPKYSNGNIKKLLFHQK
Nature of the experiment: Glucocorticoid Receptor Competitive Binding Assay (fluorescence polarization, TAMRA-labeled dexamethasone probe). The note with it: qualitative statement; competition with TAMRA-labeled dexamethasone. Summed up:
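Competition with TAMRA-dexamethasone for a human GR complex expressed in insect cells, read by fluorescence polarization. Buffer was 10 mM TES, 50 mM KCl, 20 mM Na2MoO4, 1.5 mM EDTA, 0.04% CHAPS, 10% glycerol, 1 mM DTT, pH 7.4.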
Background: Fluorescence polarisation rises when a labelled molecule tumbles more slowly, as on binding a larger partner.

The subject of another experiment is glucocorticoid receptor. Nature of the experiment: Glucocorticoid Receptor Cell Assays (agonist activity in one or more of the above assays). The note with it: qualitative statement; assay not specified. The format is cell-based.

In the case of `CC(C)(CC(O)(Cc1[nH]c2ccccc2c1C#N)C(F)(F)F)c1cc(Br)cc2c1OCC2` (centres unmarked) [2-[4-(5-Bromo-2,3-dihydrobenzofuran-7-yl)-2-hydroxy-4-methyl-2-trifluoromethylpentyl]-1H-indole-3-carbonitrile], the “activity in the GR binding assay” value in experiment [1] is reported as “potent activity”. In the experiment with glucocorticoid receptor, the “activity as agonists of the glucocorticoid receptor function in one or more of the above assays” value (from here on “activity as agonists”) was “potent agonists”.
On the same counts, the results for `COc1ccc(F)cc1C(C)(C)CC(O)(Cc1ccnc2cc(F)ccc12)C(F)(F)F` (centres unmarked) [1,1,1-Trifluoro-4-(5-fluoro-2-methoxyphenyl)-2-(7-fluoroquinolin-4-ylmethyl)-4-methylpentan-2-ol] are “potent activity” and “potent agonists”.
On the same counts, the results for `CC(C)(CC(O)(Cc1cc2cnccc2[nH]1)C(F)(F)F)c1cccc2c1OCC2` (centres unmarked) [4-(2,3-Dihydrobenzofuran-7-yl)-1,1,1-trifluoro-4-methyl-2-(1H-pyrrolo[3,2-c]pyridin-2-ylmethyl)pentan-2-ol] are “potent activity” and “potent agonists”.
Taken in the same sequence, the figures for `Cc1cccc2[nH]c(CC(O)(CC(C)(C)c3ccc(F)cc3)C(F)(F)F)cc12` (centres unmarked) [1,1,1-Trifluoro-4-(4-fluorophenyl)-4-methyl-2-(4-methyl-1H-indol-2-ylmethyl)pentan-2-ol] were “potent activity” and “potent agonists”.
Take `CC(C)(CC(O)(Cc1ccnc2ccccc12)C(F)(F)F)c1cccc(C(F)(F)F)c1` (centres unmarked) [1,1,1-Trifluoro-4-methyl-2-quinolin-4-ylmethyl-4-(3-trifluoromethylphenyl)pentan-2-ol]: the “activity in the GR binding assay” value in experiment [1] is “potent activity”. Besides, the “activity as agonists” value with glucocorticoid receptor is recorded as “potent agonists”.
Taken in the same sequence, the figures for `COc1cccc(C(C)(C)CC(O)(Cc2cc3c(C)cc(C#N)cc3[nH]2)C(F)(F)F)c1` (centres unmarked) [2-[2-Hydroxy-4-(3-methoxyphenyl)-4-methyl-2-trifluoromethylpentyl]-4-methyl-1H-indole-6-carbonitrile] were “potent activity” and “potent agonists”.
Consider `COc1ccc(Br)cc1C(C)(C)CC(O)(Cc1cc2ccccc2[nH]1)C(F)(F)F` (centres unmarked) [4-(5-Bromo-2-methoxyphenyl)-1,1,1-trifluoro-2-(1H-indol-2-ylmethyl)-4-methylpentan-2-ol], for which the “activity in the GR binding assay” value in experiment [1] is reported as “potent activity”. The “activity as agonists” value in the experiment on glucocorticoid receptor is given as “potent agonists”.
On the same counts, the results for `COc1ccc(F)cc1C(C)(C)CC(O)(Cc1cc2cccc(F)c2[nH]1)C(F)(F)F` (centres unmarked) [1,1,1-Trifluoro-2-(7-fluoro-1H-indol-2-ylmethyl)-4-(5-fluoro-2-methoxyphenyl)-4-methylpentan-2-ol] are “potent activity” and “potent agonists”.
Taken in the same sequence, the figures for `CC(C)(CC(O)(Cc1cc2ccccc2[nH]1)C(F)(F)F)c1cccc(C(F)(F)F)c1` (centres unmarked) [1,1,1-Trifluoro-2-(1H-indol-2-ylmethyl)-4-methyl-4-(3-trifluoromethylphenyl)pentan-2-ol] were “potent activity” and “potent agonists”.
For the compound `COc1ccc(F)cc1C(C)(C)CC(O)(Cc1cc2ccncc2[nH]1)C1CC1` (centres unmarked) [2-Cyclopropyl-4-(5-fluoro-2-methoxyphenyl)-4-methyl-1-(1H-pyrrolo[2,3-c]pyridin-2-yl)pentan-2-ol], in experiment [1], the “activity in the GR binding assay” value is on record as “potent activity”. In the experiment on glucocorticoid receptor, the “activity as agonists” value is given as “agonists”.
